From patent publication US10004786B2 (Zealand Pharma A/S, priority 2009, dated 2018)
Numbered stars: 1 amine (or outer) side, 2 acyl side, 3 side chain; on linkers, the order of the positions; unused ones are H or OH. Square brackets hold non-standard residues; d marks the D form. Side chains are listed from the residue outwards. Peptide text beside a SMILES is read from it. * marks the point of attachment. γGlu = O=C(O)[C@H](CCC(=O)[*:2])N[*:1]; Palmitoyl = CCCCCCCCCCCCCCCC(=O)*; Aib = CC(C)(N)C(=O)O

Tests used:
Assay type in all cases: cell-based
human GLP-1R = target: T1, human GLP-1R (Homo sapiens, UniProt P43220); experiment: GLP-1 receptor efficacy assay (cAMP formation in HEK293 cells expressing human GLP-1R); settings: Table 1a, HEK293 cells expressing hGLP-1R
T1 construct: expressed in transfected cells
T1 sequence (P43220 24-463): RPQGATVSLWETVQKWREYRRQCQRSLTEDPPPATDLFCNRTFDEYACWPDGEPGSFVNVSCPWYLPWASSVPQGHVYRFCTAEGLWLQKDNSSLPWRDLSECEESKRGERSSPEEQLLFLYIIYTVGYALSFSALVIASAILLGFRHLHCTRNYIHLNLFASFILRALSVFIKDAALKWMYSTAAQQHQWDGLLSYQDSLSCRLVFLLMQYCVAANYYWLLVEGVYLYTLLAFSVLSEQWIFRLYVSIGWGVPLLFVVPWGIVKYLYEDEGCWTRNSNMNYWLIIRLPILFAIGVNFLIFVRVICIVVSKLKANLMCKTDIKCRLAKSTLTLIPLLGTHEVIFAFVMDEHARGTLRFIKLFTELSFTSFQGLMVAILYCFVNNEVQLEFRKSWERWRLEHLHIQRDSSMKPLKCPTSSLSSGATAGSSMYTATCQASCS
Method: (§1) The 5′-end primers additionally encoded a near Kozak consensus sequence to ensure efficient translation.
(§2) 48 hr after transfection cells were seeded for limited dilution cloning and selected with 1 mg/ml G418 in the culture medium.
(§3) On the day of analysis, growth medium was removed and the cells washed once with 200 μl Tyrode buffer. […] The reaction was stopped by addition of 25 μl 0.5 M HCl and incubated on ice for 60 min. The cAMP content was estimated using the FlashPlate® cAMP kit from Perkin-Elmer.
(§4) Efficacy of the GluGLP-1 agonists were estimated by exposing cells expressing hGlucagonR and hGLP-1R to the listed acylated compounds at increasing concentrations and measuring the formed cAMP as described in Methods.

GluR = target: T2, GluR (Homo sapiens, UniProt P47871); experiment: Hepatocyt cAMP formation (primary human hepatocyts)
T2 construct: Primary human hepatocyts provided by Lonza Walkersvill, Inc; host or cells: primary human hepatocytes
T2 sequence (P47871 26-477): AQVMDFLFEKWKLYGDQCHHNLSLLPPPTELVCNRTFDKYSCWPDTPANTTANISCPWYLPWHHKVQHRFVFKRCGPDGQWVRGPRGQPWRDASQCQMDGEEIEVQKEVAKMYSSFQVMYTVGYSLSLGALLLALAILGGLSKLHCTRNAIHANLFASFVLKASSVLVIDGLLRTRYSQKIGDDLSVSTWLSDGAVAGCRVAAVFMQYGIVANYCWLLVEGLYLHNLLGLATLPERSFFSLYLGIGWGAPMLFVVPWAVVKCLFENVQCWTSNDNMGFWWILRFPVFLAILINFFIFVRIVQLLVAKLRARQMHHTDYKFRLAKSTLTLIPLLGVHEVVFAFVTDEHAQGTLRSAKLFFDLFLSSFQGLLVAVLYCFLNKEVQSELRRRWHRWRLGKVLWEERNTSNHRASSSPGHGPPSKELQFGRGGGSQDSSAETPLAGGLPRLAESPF
Method: Primary human hepatocyts provided by Lonza Walkersvill, Inc. were carefully washed in TB buffer and incubated at 37° C. with peptides dissolved in TB buffer supplemented with 100 μM IBMX and 0.1% casein for 15 minutes. Prior to addition to the cells, the peptide dilutions were pre-warmed to 37° C. The reaction was stopped by addition of 25 μl of ice cold 0.5 M HCl, and the cells were incubated on ice for 60 min. The cAMP content in the wells was determined by adding 25 μl of the acid extracts from the wells to 75 μl sodium acetate buffer, pH 6.2, in 96-well microtiter “FlashPlates” coated with scintillant and anti-cAMP antibodies.
The amount of cAMP produced by the cells was calculated by extrapolation to a cAMP standard curve.
EC50 values were estimated by fitting the cAMP data to the below formula using Sigma Plot: […]

human Glucagon-R = target: T3, human Glucagon-R (Homo sapiens, UniProt P47871); experiment: Glucagon receptor efficacy assay (cAMP formation in HEK293 cells expressing human Glucagon-R); settings: Table 1a, HEK293 cells expressing hGlucagonR, read-out: EC50 (nM) GluR
T3 construct: expressed in transfected cells
T3 sequence (P47871 26-477): as above
Method: as §1, §2, §3, §4

Compound	EC50 (human GLP-1R)	GluR EC50 (nM) (1) (GluR; experiment (1))	GluR EC50 (nM) (2) (GluR; experiment (2))	GluR EC50 (nM) (log avg) (GluR; log average of (1) and (2))	EC50 (human Glucagon-R)
CCCCCCCCCCCCCCCC(=O)NCCCC[C@H](NC(=O)[C@H](CO)NC(=O)[C@H](CC(=O)O)NC(=O)[C@H](CC(C)C)NC(=O)[C@H](Cc1ccc(O)cc1)NC(=O)[C@H](CCCCN)NC(=O)[C@H](CO)NC(=O)[C@H](Cc1ccc(O)cc1)NC(=O)[C@H](CC(=O)O)NC(=O)[C@H](CO)NC(=O)[C@@H](NC(=O)[C@H](Cc1ccccc1)NC(=O)[C@@H](NC(=O)CNC(=O)[C@H](CCC(N)=O)NC(=O)C(C)(C)NC(=O)[C@@H](N)Cc1c[nH]cn1)[C@@H](C)O)[C@@H](C)O)C(=O)N[C@@H](C)C(=O)N[C@@H](C)C(=O)N[C@@H](Cc1c[nH]cn1)C(=O)N[C@@H](CC(=O)O)C(=O)N[C@@H](Cc1ccccc1)C(=O)N[C@H](C(=O)N[C@@H](CCC(=O)O)C(=O)N[C@@H](Cc1c[nH]c2ccccc12)C(=O)N[C@@H](CC(C)C)C(=O)N[C@@H](CC(C)C)C(=O)N[C@@H](CO)C(=O)N[C@@H](C)C(N)=O)C(C)C [Compound 23]	0.14 nM	–	–	–	–
CCCCCCCCCCCCCCCC(=O)N[C@@H](CCC(=O)NCCCC[C@H](NC(=O)[C@H](C)NC(=O)[C@H](C)NC(=O)[C@H](CCC(N)=O)NC(=O)CNC(=O)[C@H](CCC(=O)O)NC(=O)[C@H](CC(C)C)NC(=O)[C@H](Cc1ccc(O)cc1)NC(=O)[C@H](CO)NC(=O)[C@H](CO)NC(=O)[C@@H](NC(=O)[C@H](CC(=O)O)NC(=O)[C@H](CO)NC(=O)[C@@H](NC(=O)[C@H](Cc1ccccc1)NC(=O)[C@@H](NC(=O)CNC(=O)[C@H](CCC(=O)O)NC(=O)[C@H](C)NC(=O)[C@@H](N)Cc1cnc[nH]1)[C@@H](C)O)[C@@H](C)O)C(C)C)C(=O)N[C@@H](CCC(=O)O)C(=O)N[C@@H](Cc1ccccc1)C(=O)N[C@H](C(=O)N[C@@H](C)C(=O)N[C@@H](Cc1c[nH]c2ccccc12)C(=O)N[C@@H](CC(C)C)C(=O)N[C@H](C(=O)N[C@@H](CCCNC(=N)N)C(=O)NCC(=O)N[C@@H](CCCNC(=N)N)C(=O)NCC(=O)O)C(C)C)[C@@H](C)CC)C(=O)O [Liraglutide]	–	∞	∞	∞	–
CCCCCCCCCCCCCCCC(=O)N[C@@H](CCC(=O)NCCCC[C@H](NC(=O)[C@H](CCC(=O)O)NC(=O)[C@H](CC(=O)O)NC(=O)[C@H](CC(C)C)NC(=O)[C@H](Cc1ccc(O)cc1)NC(=O)[C@H](CCCCN)NC(=O)[C@H](CO)NC(=O)[C@H](Cc1ccc(O)cc1)NC(=O)[C@H](CC(=O)O)NC(=O)[C@H](CO)NC(=O)[C@@H](NC(=O)[C@H](Cc1ccccc1)NC(=O)[C@@H](NC(=O)CNC(=O)[C@H](CCC(N)=O)NC(=O)C(C)(C)NC(=O)[C@@H](N)Cc1c[nH]cn1)[C@@H](C)O)[C@@H](C)O)C(=O)N[C@@H](C)C(=O)N[C@@H](C)C(=O)N[C@@H](Cc1c[nH]cn1)C(=O)N[C@@H](CC(=O)O)C(=O)N[C@@H](Cc1ccccc1)C(=O)N[C@H](C(=O)N[C@@H](CCC(=O)O)C(=O)N[C@@H](Cc1c[nH]c2ccccc12)C(=O)N[C@@H](CC(C)C)C(=O)N[C@@H](CC(C)C)C(=O)N[C@@H](CO)C(=O)N[C@@H](C)C(N)=O)C(C)C)C(=O)O [Compound 40] (H-H[Aib]QGTFTSDYSKYLDEK([γGlu-Palmitoyl])AAHDFVEWLLSA-NH2)	0.2 nM	–	–	–	0.18 nM
